The test system of experiment [1] is Lewis rats. The settings on record: prior studies (15), 4 weeks; cited from earlier work.
The test system of experiment [2] is Lewis rats. Description: Posterolateral intertransverse process spinal fusion at L4-L5 in rats. Type of experiment: in vivo, rat. The settings on record: for Fusion Rates (%) Manual Palpation / Fusion Rates (%) Micro-CT / Fusion Rates (%) X-ray: at sacrifice (8 weeks); for bilateral fusion on radiographs: four weeks; for trabecular thickness: micro-CT, 8 weeks. The protocol: Thirty-eight 8-week-old male Lewis rats were purchased from Charles River Laboratories (Wilmington, Mass.) and were maintained and housed at the UCLA vivarium in accordance with regulations set forth by the UCLA Office of Protection of Research Subjects. The study was performed under a protocol approved by the UCLA Animal Research Committee (ARC).
Animals were pre-medicated with sustained release buprenorphine thirty minutes prior to surgery and anesthetized with 2% isoflurane administered in oxygen (1 L/min). The surgical site was shaved and disinfected with Betadine and 70% ethanol. Posterolateral intertransverse process spinal fusion at L4-L5 was performed as in prior studies (21, 22). The L6 vertebral body was identified using the iliac crest as a landmark. A 4-cm longitudinal midline incision was made through the skin and subcutaneous tissue over L4-L5 down to the lumbodorsal fascia. A 2-cm longitudinal paramedial incision was then made in the paraspinal muscles bilaterally to expose the transverse processes of L4-L5, which were decorticated with a high-speed burr. The surgical site was then irrigated with sterile saline, and 5 mm×5 mm×13 mm pieces of collagen sponge (Helistat, Integra Life Sciences) containing dimethyl sulfoxide (DMSO) control, rhBMP-2, or Oxy133 were placed bilaterally, with each implant spanning the transverse processes. The implants were then covered with the overlying paraspinal muscles and the lumbodorsal fascia and skin were closed with 4-0 Prolene sutures (Ethicon, Inc., Somerville, N.J.). Animals were allowed to ambulate, eat, and drink ad libitum immediately after surgery.
Posteroanterior radiographs of the lumbar spine were taken on each animal at 4, 6, and 8 weeks after surgery using a Faxitron LX60 cabinet radiography system and evaluated blindly by two independent observers employing the following standardized scale: 0, no fusion; 1, unilateral fusion; and 2, complete bilateral fusion. The scores from the observers were added together and only a score of 4 was considered as complete fusion.
Eight weeks after surgery, animals were euthanized and the spines were surgically removed and evaluated by two blinded independent observers for motion between levels. Nonunion was recorded if motion was observed between the facets or transverse processes on either side. Complete fusion was recorded if no motion was observed bilaterally. Spines were scored as either fused or not fused. Unanimous agreement was required to consider complete fusion.
Each removed spine was analyzed by high resolution micro-computed tomography (micro-CT), using a SkyScan 1172 scanner (SkyScan, Belgium) with a voxel isotropic resolution of 20 μm and an X-ray energy of 55 kVp and […] to further assess the fusion rate and observe the fusion mass as we have previously reported (15). Three hundred and sixty projections were acquired over an angular range of 180° with steps of 0.5 with an exposure time of 220 msec/slice. Five frames were averaged at each rotation step to get better signal to noise ratio. A 0.5 mm aluminum filter was used to narrow down the X-ray beam frequency in order to minimize beam hardening artifact. Virtual image slices were reconstructed using the cone-beam reconstruction software version 2.6 based on the Feldkamp algorithm (SkyScan). These settings produced serial cross-sectional 1024×1024 pixel images. Sample re-orientation and 2D visualization were performed using DataViewer (SkyScan). 3D visualization was performed using Dolphin Imaging version 11 (Dolphin Imaging & Management Solutions, Chatsworth, Calif.). Fusion was defined as the bilateral presence of bridging bone between the L4 and L5 transverse processes. The reconstructed images were judged to be fused or not fused by two experienced independent observers.

For experiment [3], the system named is 8×-Gli luciferase reporter (Hedgehog signaling). The experiment can be described thus: Gli-dependent luciferase reporter assay in C3H cells. The settings on record: 48 hours. In kind it is cell-based, mouse. Here is the method:
After 4 days ALP activity, and after 7 days the expression of osteogenic genes ALP, BSP, and OSX was measured by quantitative real-time PCR (p<0.001 for control vs. Oxy133, and for Oxy133 vs. Oxy133+Cyc for ALP activity and for the expression of all genes shown). […] (p<0.001 for control vs. Oxy133 at 100 nM, 250 nM, and 1 μM Oxy133). (FIG. 4C) The amount of YFP-Smo captured by 20S beads or control beads was compared in samples containing either no competitor or 50 μM of a free competitor sterol (20S, Oxy133 or Oxy16). The YFP-Smo captured by the beads was measured by Western blot (top) and plotted (bottom) relative to the amount captured in the binding reaction with no competitor.
Cells at 70% confluence in 24-well plates were transiently transfected with Gli-dependent firefly luciferase and Renilla luciferase vectors as we have previously described (17, 18). […] Luciferase activity was assessed using the Dual Luciferase Reporter Assay System (Promega Corporation, Madison, Wis.) according to manufacturer's instructions after cells were treated for 48 hours.
A general note: In a reporter assay the amount or activity of a reporter protein is the signal.

Experiment [4] deals with M2-10B4 (M2) bone marrow stromal cells. Description: Alkaline phosphatase (ALP) activity assay on whole cell extracts, M2 cells. Type of experiment: cell-based, mouse. The settings on record: data not shown.

Structures are written as SMILES.

The source of these data is patent US9717742B2, “Oxysterol analogue OXY133 induces osteogenesis and hedgehog signaling and inhibits adipogenesis” (The Regents of the University of California, priority 2012, dated 2017).

`C=C(C)CCC[C@](C)(O)[C@H]1CC[C@H]2[C@@H]3C[C@H](O)[C@H]4C[C@@H](O)CC[C@]4(C)[C@H]3CC[C@@]21C` [Oxy49]: the “fusion at the 4 week time point in prior studies” value in the experiment with Lewis rats [1] is “no fusion”.

For the compound `CCCCCC[C@](C)(O)[C@H]1CC[C@H]2[C@@H]3C[C@H](O)[C@H]4C[C@@H](O)CC[C@]4(C)[C@H]3CC[C@@]21C` [Oxy133, (3S,5S,6S,8R,9S,10R,13S,14S,17S) 17-((S)-2-hydroxyoctan-2-yl)-10,13-dimethylhexadecahydro-1H-cyclopenta[a]phenanthrene-3,6-diol], in the experiment on Lewis rats [2] (Oxy133 0.2 mg), the “Fusion Rates (%) Manual Palpation” value is reported as 0%, the “Fusion Rates (%) Micro-CT” value is 0% and the “Fusion Rates (%) X-ray” value amounted to 0%. In the experiment with Lewis rats [2] (Oxy133 2 mg), the “bilateral fusion, micro-CT” value is on record as 4/8; the “Fusion Rates (%) Manual Palpation” value was 50%; the “Fusion Rates (%) Micro-CT” value is 50%; the “Fusion Rates (%) X-ray” value amounted to 50%. In the experiment with Lewis rats [2] (Oxy133 2 mg), the “bilateral fusion on radiographs” value is on record as 3/8 and the “trabecular thickness” value is reported as 134.008. In addition, the “bilateral fusion confirmed on manual palpation” value in the experiment on Lewis rats [2] (Oxy133 2 mg, after sacrifice) is 4/8. Further, the fusion on radiographs in the experiment with Lewis rats [2] (Oxy133 2 mg, eight weeks) is recorded as 4/8. The “bilateral fusion by manual assessment” value in the experiment with Lewis rats [2] (Oxy133 20 mg, after sacrifice) was 6/7. Also, in the experiment with Lewis rats [2] (Oxy133 20 mg), the “Fusion Rates (%) Manual Palpation” value is reported as 86%, the “Fusion Rates (%) Micro-CT” value was found to be 100%, the “Fusion Rates (%) X-ray” value turned out to be 100% and the “bilateral fusion on radiographs” value was 6/7. In addition, the “trabecular thickness” value with Lewis rats [2] (Oxy133 20 mg) was determined as 124.737. For the same compound, the “induction of Gli-dependent reporter activity” value in experiment [3] (100 nM) came out at 5 fold. Further, the “induction of Gli-dependent reporter activity” value in experiment [3] (at 1 Oxy133 (unit not given)) stood at 17 fold.

Regarding `CC1=C2C[C@H]3[C@@H](CC=C4C[C@@H](O)CC[C@@]43C)[C@@H]2CC[C@]12O[C@@H]1C[C@H](C)CN[C@H]1[C@H]2C` [Cyclopamine], the “inhibition of Oxy133-induced ALP activity and expression of osteogenic markers” value in experiment [4] is on record as “completely inhibited”.

For `CC(C)CCCC(C)(O)C1CCC2C3CC(O)C4CC(O)CCC4(C)C3CCC21C` (stereo not shown) [Oxy34], in the experiment with Lewis rats [1], the “fusion at the 4 week time point in prior studies” value is “no fusion”.
